Reference: US11304935B2 (UNIVERSITY OF SOUTH CHINA, priority 2018, dated 2022)

System: pentylenetetrazole-induced epilepsy
Test: Pentylenetetrazole-induced epilepsy model mice
Format: in vivo, C57BL/6 mice
Settings: I-BRD9 10, 15, 20 mg/kg i.p. or s.c. 1 h before 45 mg/kg pentylenetetrazole i.p., compared with epilepsy model group
From the text: In the present disclosure, the animals are all 8-week-old healthy male C57BL/6 mice, weighing 22-24 grams, all purchased from Hunan SJD laboratory animal Co. LTD., license number: SCXK (Xiang) 2016-0002. C57BL/6 mice in different groups were all feed in an artificial day and night 12-hour circular lighting environment (7:00 AM-7:00 PM). The mice in the groups and were kept in cages, 4-6 mice per cage. In the cages, the mice had free access to food and water; and the daily food and water were changed regularly
Animals in each group were administered with corresponding dosage of drugs or vehicle by intraperitoneal or subcutaneous injection. 1 h later, 45 mg/kg of pentylenetetrazole was intraperitoneally injected. The behaviors and conditions of the animals were observed. Later, changes of mice behaviors were closely observed through video monitoring system for 1 h, and seizure level was evaluated by Racine grading standard. The incubation period (started after the completion the administration of pentylenetetrazole, and ended by the first time muscle spasm occurred), seizure level (subjected to the highest level) and duration period of the seizure were recorded.
Seizure level of mice were referred to a modified Racine scale:
I stage: rhythmical mouth, ears and facial twitch and spasm;
II stage: nodding and more serious facial twitch and spasm;
III stage: clonus of forelimb occurs, without up-right;
IV stage: rearing with forelimb clonus;
V stage: stiffness clonus occurs in the whole body, and falling.

## CCn1cc(-c2cccc(C(F)(F)F)c2)c2sc(C(=N)NC3CCS(=O)(=O)CC3)cc2c1=O [I-BRD9]
FIG. 1
  seizure level (modified Racine scale): obviously reduced seizure level
FIG. 2
  epilepsy susceptibility: reduced epilepsy susceptibility
FIG. 3
  incubation period (onset time of epilepsy): postpone the onset time of epilepsy
